In US4436751A, “Nitrobenzyl monates antibacterial compounds” (Beecham Group Limited, priority 1980, dated 1984):
In brackets after ≈: the same amount, converted by molar mass. Read-outs that look alike come from different tables or passages of the source.

What was measured:
Format in all cases: cell-based
M. suipneumoniae JF 435 = test: Anti-mycoplasmal MIC in vitro, Friis broth agarose (Table 1); conditions: Mesomycoplasma hyopneumoniae, JF435, 144 h
[1] = test system: M. suipneumoniae J2206/183b; test: as above; conditions: Mesomycoplasma hyopneumoniae, 144 h
M. suipneumoniae LABER = test: as above; conditions: Mesomycoplasma hyopneumoniae, 144 h
M. suipneumoniae TAM 6N = test: as above; conditions: Mesomycoplasma hyopneumoniae, TAM6N, 144 h
[2] = test system: M. suipneumoniae NCTC 10110; test: as above; conditions: Mesomycoplasma hyopneumoniae, NCTC10110, 144 h
M. hyorhinis ATCC 23234 = test: as above; conditions: Mesomycoplasma hyorhinis, ATCC23234, 144 h
M. bovis RCTC 10131 = test: microbe, parasite or virus in culture; conditions: RCTC10131, 144 h
[3] = test system: M. bovigenitalium ATOC 14173; test: Anti-mycoplasmal MIC in vitro, Friis broth agarose (Table 1); conditions: 144 h
M. dispar RCTC 10125 = test: as above; conditions: 144 h
M. gallisepticum S6 = test: as above; conditions: Mycoplasmoides gallisepticum
Bord. bronchiseptica BO8 = test: Veterinary bacteria MIC, Diagnostic Sensitivity Test Agar (Table 2); conditions: Bordetella bronchiseptica
Experimental: (§1) The values were determined using a two fold serial dilutions in Diagnostic Sensitivity Test Agar with an inoculum of 10^4 organisms and incubation for 18 hours at 37° C.

Bord. bronchiseptica BO9 = test: as above; conditions: Bordetella bronchiseptica
Experimental: as §1

[4] = test system: Corynebacterium pyogenes CY1; test: as above; conditions: Trueperella pyogenes
Experimental: as §1

E. Coli E1 = test: as above; conditions: Escherichia coli
Experimental: as §1

E. Coli NCTC 10418 = test: as above; conditions: Escherichia coli
Experimental: as §1

[5] = test system: Erysipelothrix rhusiopathiae NCTC 8163; test: as above; conditions: NCTC8163; Erysipelothrix rhusiopathiae NCTC 8163; DST Agar, 10^4 organisms, 18 hours 37° C.; read-out: MIC
Experimental: as §1

Past. haemolytica PA5 = test: as above; conditions: Mannheimia haemolytica
Experimental: as §1

Past. multocida PA1 = test: as above; conditions: Pasteurella multocida; Past. multocida PA1; DST Agar, 10^4 organisms, 18 hours 37° C.; read-out: MIC
Experimental: as §1

Past. multocida PA2 = test: as above; conditions: Pasteurella multocida; Past. multocida PA2; DST Agar, 10^4 organisms, 18 hours 37° C.; read-out: MIC
Experimental: as §1

S. dublin S7 = test: as above; conditions: Salmonella enterica
Experimental: as §1

S. typhimurium S18 = test: as above; conditions: Salmonella enterica
Experimental: as §1

Staph. aureus 152 = test: as above; conditions: Staphylococcus aureus; Staph. aureus 152; DST Agar, 10^4 organisms, 18 hours 37° C.; read-out: MIC
Experimental: as §1

Staph. aureus B4 = test: as above; conditions: Staphylococcus aureus; Staph. aureus B4; DST Agar, 10^4 organisms, 18 hours 37° C.; read-out: MIC
Experimental: as §1

Staph. aureus Oxford = test: as above; conditions: Staphylococcus aureus; Staph. aureus Oxford; DST Agar, 10^4 organisms, 18 hours 37° C.; read-out: MIC
Experimental: as §1

Strep. agalactiae SPA1 = test: as above; conditions: Streptococcus agalactiae; Strep. agalactiae SPA1; DST Agar, 10^4 organisms, 18 hours 37° C.; read-out: MIC
Experimental: as §1

Strep. dylgalactiae SPD1 = test: as above; conditions: Strep. dylgalactiae SPD1; DST Agar, 10^4 organisms, 18 hours 37° C.; read-out: MIC
Experimental: as §1

[6] = test system: Strep. suis (group D) SPS11; test: as above; conditions: Streptococcus suis
Experimental: as §1

Strep. uberis SPO1 = test: as above; conditions: Streptococcus uberis; Strep. uberis SPO1; DST Agar, 10^4 organisms, 18 hours 37° C.; read-out: MIC
Experimental: as §1

[7] = Past. haemolytica PA5, DST Agar, 10^4 organisms, 18 hours 37° C., read-out: MIC
[8] = Strep. suis (group D) SPS11, DST Agar, 10^4 organisms, 18 hours 37° C., read-out: MIC
[9] = M. suipneumoniae JF 435, in vitro, 6 days 37° C., read-out: MIC
[10] = M. suipneumoniae J2206/183b, in vitro, 6 days 37° C., read-out: MIC
[11] = M. suipneumoniae TAM 6N, in vitro, 6 days 37° C., read-out: MIC
[12] = Bord. bronchiseptica BO9, DST Agar, 10^4 organisms, 18 hours 37° C., read-out: MIC
[13] = E. Coli E1, DST Agar, 10^4 organisms, 18 hours 37° C., read-out: MIC
[14] = NCTC10418, E. Coli NCTC 10418, DST Agar, 10^4 organisms, 18 hours 37° C., read-out: MIC
[15] = S. dublin S7, DST Agar, 10^4 organisms, 18 hours 37° C., read-out: MIC
[16] = S. typhimurium S18, DST Agar, 10^4 organisms, 18 hours 37° C., read-out: MIC

## C/C(=C\C(=O)OCc1ccccc1[N+](=O)[O-])CC1OCC(CC2OC2C(C)C(C)O)C(O)C1O (stereo not drawn) [C, O--nitrobenzyl monate A, reference compound]
M. suipneumoniae JF 435
  MIC: 0.5 µg/mL (≈ 1.04 µM)
[1]; J2206/183B
  MIC: 0.5 µg/mL (≈ 1.04 µM)
M. suipneumoniae LABER
  MIC: 0.25 µg/mL (≈ 0.521 µM)
M. suipneumoniae TAM 6N
  MIC: 0.5 µg/mL (≈ 1.04 µM)
[2]
  MIC: 0.5 µg/mL (≈ 1.04 µM)
M. hyorhinis ATCC 23234
  MIC: 0.25 µg/mL (≈ 0.521 µM)
M. bovis RCTC 10131
  MIC: ≤ 0.01 µg/mL
[3]
  MIC: 0.025 µg/mL (≈ 0.0521 µM)
M. dispar RCTC 10125
  MIC: 0.1 µg/mL (≈ 0.209 µM)
M. gallisepticum S6; S6, 144 h
  MIC: 5 µg/mL (≈ 10.4 µM)
Bord. bronchiseptica BO8; BO8, 18 h
  MIC: 80 µg/mL (≈ 167 µM)
Bord. bronchiseptica BO9; BO9, 18 h
  MIC: 10 µg/mL (≈ 20.9 µM)
[4]; CY1, 18 h
  MIC: > 80 µg/mL
E. Coli E1; 18 h
  MIC: > 80 µg/mL
E. Coli NCTC 10418; NCTC10418, 18 h
  MIC: > 80 µg/mL
[5]
  MIC: 80 µg/mL (≈ 167 µM)
Past. haemolytica PA5; [7]
  MIC: 10 µg/mL (≈ 20.9 µM)
Past. multocida PA1
  MIC: 2.5 µg/mL (≈ 5.21 µM)
Past. multocida PA2
  MIC: 1.25 µg/mL (≈ 2.61 µM)
S. dublin S7; S7, 18 h
  MIC: > 80 µg/mL
S. typhimurium S18; TYPHIMURIUM, 18 h
  MIC: > 80 µg/mL
Staph. aureus 152
  MIC: 0.625 µg/mL (≈ 1.3 µM)
Staph. aureus B4
  MIC: 0.625 µg/mL (≈ 1.3 µM)
Staph. aureus Oxford
  MIC: 0.625 µg/mL (≈ 1.3 µM)
Strep. agalactiae SPA1
  MIC: 2.5 µg/mL (≈ 5.21 µM)
Strep. dylgalactiae SPD1
  MIC: 0.625 µg/mL (≈ 1.3 µM)
[6]; [8]
  MIC: 20 µg/mL (≈ 41.7 µM)
Strep. uberis SPO1
  MIC: 0.07 µg/mL (≈ 0.146 µM)

## C/C(=C\C(=O)OCc1ccc([N+](=O)[O-])cc1)CC1OCC(CC2OC2C(C)C(C)O)C(O)C1O (stereo not drawn) [Example 1, p-nitrobenzyl monate A]
M. suipneumoniae JF 435; [9]
  MIC: 0.1 µg/mL (≈ 0.209 µM)
[1]; [10]
  MIC: 0.1 µg/mL (≈ 0.209 µM)
M. suipneumoniae LABER
  MIC: 0.05 µg/mL (≈ 0.104 µM)
M. suipneumoniae TAM 6N; [11]
  MIC: 0.1 µg/mL (≈ 0.209 µM)
[2]
  MIC: 0.05 µg/mL (≈ 0.104 µM)
M. hyorhinis ATCC 23234
  MIC: 0.05 µg/mL (≈ 0.104 µM)
M. bovis RCTC 10131
  MIC: < 0.01 µg/mL
[3]
  MIC: < 0.01 µg/mL
M. dispar RCTC 10125
  MIC: 0.025 µg/mL (≈ 0.0521 µM)
M. gallisepticum S6; S6, 144 h
  MIC: 0.25 µg/mL (≈ 0.521 µM)
Bord. bronchiseptica BO8; BO8, 18 h
  MIC: 5 µg/mL (≈ 10.4 µM)
Bord. bronchiseptica BO9; [12]
  MIC: 1.25 µg/mL (≈ 2.61 µM)
[4]; CY1, 18 h
  MIC: > 80 µg/mL
E. Coli E1; [13]
  MIC: 40 µg/mL (≈ 83.4 µM)
E. Coli NCTC 10418; [14]
  MIC: 40 µg/mL (≈ 83.4 µM)
[5]
  MIC: 10 µg/mL (≈ 20.9 µM)
Past. haemolytica PA5; PA5, 18 h
  MIC: 1.25 µg/mL (≈ 2.61 µM)
Past. multocida PA1
  MIC: 0.156 µg/mL (≈ 0.325 µM)
Past. multocida PA2
  MIC: > 0.019 µg/mL
S. dublin S7; [15]
  MIC: 40 µg/mL (≈ 83.4 µM)
S. typhimurium S18; [16]
  MIC: 40 µg/mL (≈ 83.4 µM)
Staph. aureus 152
  MIC: 0.156 µg/mL (≈ 0.325 µM)
Staph. aureus B4
  MIC: 0.156 µg/mL (≈ 0.325 µM)
Staph. aureus Oxford
  MIC: 0.156 µg/mL (≈ 0.325 µM)
Strep. agalactiae SPA1
  MIC: 0.317 µg/mL (≈ 0.661 µM)
Strep. dylgalactiae SPD1
  MIC: 0.07 µg/mL (≈ 0.146 µM)
[6]; 18 h
  MIC: 1.25 µg/mL (≈ 2.61 µM)
Strep. uberis SPO1
  MIC: 0.039 µg/mL (≈ 0.0813 µM)

## C/C(=C\C(=O)OCc1cccc([N+](=O)[O-])c1)CC1OCC(CC2OC2C(C)C(C)O)C(O)C1O (stereo not drawn) [Example 2, m-nitrobenzyl monate A]
M. suipneumoniae JF 435; [9]
  MIC: 0.025 µg/mL (≈ 0.0521 µM)
[1]; [10]
  MIC: 0.025 µg/mL (≈ 0.0521 µM)
M. suipneumoniae LABER; M. suipneumoniae LABER, in vitro, 6 days 37° C., read-out: MIC
  MIC: 0.025 µg/mL (≈ 0.0521 µM)
M. suipneumoniae TAM 6N; [11]
  MIC: 0.025 µg/mL (≈ 0.0521 µM)
[2]
  MIC: 0.025 µg/mL (≈ 0.0521 µM)
M. hyorhinis ATCC 23234; M. hyorhinis ATCC 23234, in vitro, 6 days 37° C., read-out: MIC
  MIC: ≤ 0.01 µg/mL
M. bovis RCTC 10131
  MIC: ≤ 0.01 µg/mL
[3]; M. bovigenitalium ATOC 14173, in vitro, 6 days 37° C., read-out: MIC
  MIC: ≤ 0.01 µg/mL
M. dispar RCTC 10125; M. dispar RCTC 10125, in vitro, 6 days 37° C., read-out: MIC
  MIC: 0.01 µg/mL (≈ 0.0209 µM)
M. gallisepticum S6; 144 h, M. gallisepticum S6, in vitro, 6 days 37° C., read-out: MIC
  MIC: 2.5 µg/mL (≈ 5.21 µM)
Bord. bronchiseptica BO8; Bord. bronchiseptica BO8, DST Agar, 10^4 organisms, 18 hours 37° C., read-out: MIC
  MIC: 20 µg/mL (≈ 41.7 µM)
Bord. bronchiseptica BO9; [12]
  MIC: 5 µg/mL (≈ 10.4 µM)
[4]; Corynebacterium pyogenes CY1, DST Agar, 10^4 organisms, 18 hours 37° C., read-out: MIC
  MIC: > 80 µg/mL
E. Coli E1; [13]
  MIC: 40 µg/mL (≈ 83.4 µM)
E. Coli NCTC 10418; [14]
  MIC: 40 µg/mL (≈ 83.4 µM)
[5]
  MIC: 20 µg/mL (≈ 41.7 µM)
Past. haemolytica PA5; [7]
  MIC: 5 µg/mL (≈ 10.4 µM)
Past. multocida PA1
  MIC: 0.615 µg/mL (≈ 1.28 µM)
Past. multocida PA2
  MIC: 0.312 µg/mL (≈ 0.651 µM)
S. dublin S7; [15]
  MIC: 80 µg/mL (≈ 167 µM)
S. typhimurium S18; [16]
  MIC: 40 µg/mL (≈ 83.4 µM)
Staph. aureus 152
  MIC: 0.625 µg/mL (≈ 1.3 µM)
Staph. aureus B4
  MIC: 0.625 µg/mL (≈ 1.3 µM)
Staph. aureus Oxford
  MIC: 0.625 µg/mL (≈ 1.3 µM)
Strep. agalactiae SPA1
  MIC: 0.625 µg/mL (≈ 1.3 µM)
Strep. dylgalactiae SPD1
  MIC: 0.312 µg/mL (≈ 0.651 µM)
[6]; [8]
  MIC: 5 µg/mL (≈ 10.4 µM)
Strep. uberis SPO1
  MIC: 0.07 µg/mL (≈ 0.146 µM)
